# Laboratory results published in patent publication US8278455B2, “5- or 6-substituted benzimidazole derivatives as inhibitors of respiratory syncytial virus replication” (Janssen Pharmaceutica N.V., priority 2003, dated 2012).
# Tested on: Respiratory Syncytial Virus
# Assay: In vitro screening for activity against Respiratory Syncytial Virus (MTT tetrazolium colorimetric assay, HeLa cells)
# Assay type: cell-based
# Conditions: human respiratory syncytial virus, 168 h; protection against RSV cytopathology in HeLa cells, 7 days after infection; pEC50 = −log of EC50 in molar units
# Description: The percent protection against cytopathology caused by viruses (antiviral activity or EC50) achieved by tested compounds and their cytotoxicity (CC50) are both calculated from dose-response curves. The selectivity of the antiviral effect is represented by the selectivity index (SI), calculated by dividing the CC50 (cytotoxic dose for 50% of the cells) by the EC50 (antiviral activity for 50% of the cells). The tables in the above experimental part list the category to which each of the prepared compounds belong. Compounds belonging to activity category “A” have an pEC50 (−log of EC50 when expressed in molar units) equal to or more than 7. Compounds belonging to activity category “B” have a pEC50 value between 6 and 7.
# Automated tetrazolium-based […] assays were used for determination of EC50 and CC50 of test compounds. Flat-bottom, 96-well plastic microtiter trays were filled with 180 μl of Eagle's Basal Medium, supplemented with 5% FCS (0% for FLU) and 20 mM Hepes buffer. Subsequently, stock solutions (7.8× final test concentration) of compounds were added in 45 μl volumes to a series of triplicate wells so as to allow simultaneous evaluation of their effects on virus- and mock-infected cells. Five five-fold dilutions were made directly in the microtiter trays using a robot system. Untreated virus controls, and HeLa cell controls were included in each test. Approximately 100 TCID50 of Respiratory Syncytial Virus was added to two of the three rows in a volume of 50 μl. The same volume of medium was added to the third row to measure the cytotoxicity of the compounds at the same concentrations as those used to measure the antiviral activity. After two hours of incubation, a suspension (4×10^5 cells/ml) of HeLa cells was added to all wells in a volume of 50 μl. The cultures were incubated at 37° C. in a 5% CO2 atmosphere. Seven days after infection the cytotoxicity and the antiviral activity was examined spectrophotometrically. To each well of the microtiter tray, 25 μl of a solution of MTT (3-(4,5-dimethylthiazol-2-yl)-2,5-diphenyltetrazolium bromide) was added. The trays were further incubated at 37° C. for 2 hours, after which the medium was removed from each cup. Solubilization of the formazan crystals was achieved by adding 100 μl 2-propanol. Complete dissolution of the formazan crystals were obtained after the trays have been placed on a plate shaker for 10 min. Finally, the absorbances were read in an eight-channel computer-controlled photometer (Multiskan MCC, Flow Laboratories) at two wavelengths (540 and 690 nm). The absorbance measured at 690 nm was automatically subtracted from the absorbance at 540 nm, so as to eliminate the effects of non-specific absorption.
row,Compound,EC50
1,"Cc1cccc(NCc2cc(C)c3nc(NC4CCN(CCO)CC4)n(Cc4nc(C)ccc4O)c3c2)c1 [Compound 171, 2-[2-[1-(2-Hydroxy-ethyl)-piperidin-4-ylamino]-4-methyl-6-(m-tolylamino-methyl)-benzoimidazol-1-ylmethyl]-6-methyl-pyridin-3-ol]",0.00316 µM
2,"Cc1cccc(SCc2ccc3nc(NC4CCN(C)CC4)n(Cc4nc(C)ccc4O)c3c2)c1 [Compound 93, 6-methyl-2-[2-(1-methyl-piperidin-4-ylamino)-6-m-tolylsulfanylmethyl-benzoimidazol-1-ylmethyl]-pyridin-3-ol]",0.251 µM
3,"Cc1cc(C)cc(NCc2ccc3nc(NCCCN4CCCCC4)n(Cc4nc(C)ccc4O)c3c2)c1 [Compound 173, 2-[6-[(3,5-dimethyl-phenylamino)-methyl]-2-(3-piperidin-1-yl-propylamino)-benzoimidazol-1-ylmethyl]-6-methyl-pyridin-3-ol]",0.00158 µM
4,"Cc1cccc(CNc2ccc3nc(NC4CCN(C)CC4)n(Cc4nc(C)ccc4O)c3c2)c1 [Compound 28, 6-methyl-2-[6-(3-methyl-benzylamino)-2-(1-methyl-piperidin-4-ylamino)-benzoimidazol-1-ylmethyl]-pyridin-3-ol]",0.0158 µM
5,"Cc1cccc(NC(=O)c2ccc3nc(NC4CCN(C)CC4)n(Cc4nc(C)ccc4O)c3c2)c1 [Compound 116, 3-(3-hydroxy-6-methyl-pyridin-2-ylmethyl)-2-(1-methyl-piperidin-4-ylamino)-3H-benzoimidazole-5-carboxylic acid m-tolylamide]",7.94 µM
6,"Cc1cccc(C(=O)Nc2ccc3nc(NC4CCN(C)CC4)n(Cc4nc(C)ccc4O)c3c2)c1 [Compound 65, N-[3-(3-hydroxy-6-methyl-pyridin-2-yl-methyl)-2-(1-methyl-piperidin-4-ylamino)-3H-benzoimidazol-5-yl]-3-methyl-benzamide]",0.0631 µM

# Same assay, conditions: protection against RSV cytopathology in HeLa cells, 7 days after infection; pEC50 = −log of EC50 in molar units
row,Compound,Activity
1,Cc1ccc(O)c(Cn2c(NC3CCN(C)CC3)nc3ccc(CNc4ccc(Br)c(C)c4)cc32)n1 [Compound 68],7.2
2,Cc1ccc(O)c(Cn2c(NC3CCN(C)CC3)nc3cc(/C=C/c4ccc(Cl)cc4)ccc32)n1 [Compound 127],<4
3,Cc1cc(C)cc(N(CCN(C)C)Cc2ccc3nc(NC4CCN(C)CC4)n(Cc4nc(C)ccc4O)c3c2)c1 [Compound 5],8.5
4,Cc1ccc(O)c(Cn2c(NC3CCN(C)CC3)nc3ccc(C(O)c4ccccc4)cc32)n1 (centres unmarked) [Compound 86],6.8
5,Cc1ccc(O)c(Cn2c(NC3CCN(C)CC3)nc3ccc(CNc4ccc(Nc5ccccc5)cc4)cc32)n1 [Compound 64],7.3
6,Cc1ccc(O)c(Cn2c(NC3CCN(C)CC3)nc3ccc(CNc4cccc(Cl)c4C)cc32)n1 [Compound 40],7.6
7,Cc1ccc(O)c(Cn2c(NC3CCN(C)CC3)nc3ccc(C(=O)NCCc4ccccc4)cc32)n1 [Compound 136],<4
8,Cc1cccc(/C=C/c2ccc3nc(NC4CCN(C)CC4)n(Cc4nc(C)ccc4O)c3c2)c1 [Compound 103],6.3
9,Cc1ccc(O)c(Cn2c(NC3CCN(C)CC3)nc3ccc(C(=O)Nc4ccccc4)cc32)n1 [Compound 112],5.5
10,Cc1ccc(O)c(Cn2c(NC3CCN(C)CC3)nc3ccc(CNc4c(C)cccc4C(C)C)cc32)n1 [Compound 82],6.9
11,Cc1ccc(O)c(Cn2c(NC3CCN(C)CC3)nc3ccc(CN(CCO)c4ccccc4)cc32)n1 [Compound 4],8.5
12,Cc1ccc(O)c(Cn2c(NC3CCN(C)CC3)nc3ccc(CNc4ccc5c(c4)OCCO5)cc32)n1 [Compound 32],7.8
13,Cc1ccc(/C=C/c2ccc3nc(NC4CCN(C)CC4)n(Cc4nc(C)ccc4O)c3c2)cc1 [Compound 128],<4
14,Cc1ccc(NCc2ccc3nc(NC4CCN(C)CC4)n(Cc4nc(C)ccc4O)c3c2)c(Cl)c1 [Compound 73],7.1
15,Cc1ccc(O)c(Cn2c(NC3CCN(C)CC3)nc3ccc(CNc4c(F)cccc4F)cc32)n1 [Compound 46],7.5
16,Cc1ccc(O)c(Cn2c(NC3CCN(C)CC3)nc3cc(/C=C/c4ccccc4)ccc32)n1 [Compound 100],6.4
17,Cc1ccc(O)c(Cn2c(NC3CCN(C)CC3)nc3ccc(CNc4ccc(Br)c5ccccc45)cc32)n1 [Compound 94],6.6
18,Cc1ccc(O)c(Cn2c(NC3CCN(C)CC3)nc3ccc(NC(=O)c4cccnc4)cc32)n1 [Compound 114],5.2
19,Cc1ccc(O)c(Cn2c(NC3CCN(C)CC3)nc3cc(C(=O)NCCc4ccccc4)ccc32)n1 [Compound 120],4.6
20,Cc1ccc(O)c(Cn2c(NC3CCN(Cc4ccccc4)CC3)nc3ccc(CNc4cc(Cl)cc(Cl)c4)cc32)n1 [Compound 165],7.1

row,Compound,Activity
1,Cc1ccc(O)c(Cn2c(NC3CCN(C)CC3)nc3ccc(CNc4c(C)cccc4C)cc32)n1 [Compound 75],7
2,CC(=O)Nc1cccc(NCc2ccc3nc(NC4CCN(C)CC4)n(Cc4nc(C)ccc4O)c3c2)c1 [Compound 49],7.4
3,CCOC(=O)c1ccc2c(c1)nc(NC1CCNCC1)n2Cc1nc(C)ccc1O [Compound 139],5.1
4,Cc1ccc(O)c(Cn2c(NC3CCN(C)CC3)nc3cc(NC(=O)Cc4ccccn4)ccc32)n1 [Compound 113],5.5
5,Cc1ccc(O)c(Cn2c(NC3CCN(C)CC3)nc3cc(CO)ccc32)n1 [Compound 122],<4
6,Cc1ccc(O)c(Cn2c(NC3CCN(CCC(N)=O)CC3)nc3cc(C=Cc4ccccc4)ccc32)n1 [Compound 166],6.8
7,Cc1cc(C)cc(NCc2ccc3c(c2)nc(NCCCN2CCN(C)CC2)n3Cc2nc(C)ccc2O)c1 [Compound 179],6.2
8,Cc1ccc(O)c(Cn2c(NC3CCN(C)CC3)nc3ccc(CN(CCN(C)C)Cc4ccccc4)cc32)n1.Cl [Compound 59],7.3
9,Cc1ccc(O)c(Cn2c(NC3CCN(CCO)CC3)nc3ccc(C=Cc4ccccc4)cc32)n1 [Compound 169],6.6
10,Cc1ccc(O)c(Cn2c(NC3CCN(C)CC3)nc3ccc(CNc4ccc(Br)cc4F)cc32)n1 [Compound 48],7.5
11,Cc1ccc(O)c(Cn2c(NCCc3ccccc3)nc3ccc(CO)cc32)n1 [Compound 188],4.4
12,Cc1ccc(O)c(Cn2c(NC3CCN(C)CC3)nc3ccc(Cn4ccnc4)cc32)n1 [Compound 79],6.9
13,CC(=O)Nc1ccc(NCc2ccc3nc(NC4CCN(C)CC4)n(Cc4nc(C)ccc4O)c3c2)cc1 [Compound 53],7.4
14,Cc1ccc(O)c(Cn2c(NC3CCN(C)CC3)nc3ccc(CNc4ccc(Cl)cc4Br)cc32)n1 [Compound 83],6.9
15,Cc1cc(C)cc(NCc2ccc3c(c2)nc(NCCc2ccccc2)n3Cc2nc(C)ccc2O)c1 [Compound 186],<4
16,Cc1ccc(O)c(Cn2c(NC3CCN(CCC(N)=O)CC3)nc3cc(CCc4ccccc4)ccc32)n1 [Compound 170],5.7
17,CC(=O)c1ccc(NCc2ccc3nc(NC4CCN(C)CC4)n(Cc4nc(C)ccc4O)c3c2)cc1 [Compound 17],8
18,Cc1ccc(O)c(Cn2c(NCCCN3CCN(C)CC3)nc3cc(CO)ccc32)n1 [Compound 183],5
19,CCCCN(CCO)Cc1ccc2nc(NC3CCN(C)CC3)n(Cc3nc(C)ccc3O)c2c1 [Compound 109],6
20,Cc1ccc(O)c(Cn2c(NC3CCN(C)CC3)nc3ccc(CNc4ccccc4C(N)=O)cc32)n1 [Compound 14],8.1

# Tested on: not given
# Assay: not given
# Conditions: not given
row,Compound,melting point
1,"Cc1cccc(NCc2cc(C)c3nc(NC4CCN(CCO)CC4)n(Cc4nc(C)ccc4O)c3c2)c1 [Compound 171, 2-[2-[1-(2-Hydroxy-ethyl)-piperidin-4-ylamino]-4-methyl-6-(m-tolylamino-methyl)-benzoimidazol-1-ylmethyl]-6-methyl-pyridin-3-ol]",123 °C
2,"Cc1cccc(SCc2ccc3nc(NC4CCN(C)CC4)n(Cc4nc(C)ccc4O)c3c2)c1 [Compound 93, 6-methyl-2-[2-(1-methyl-piperidin-4-ylamino)-6-m-tolylsulfanylmethyl-benzoimidazol-1-ylmethyl]-pyridin-3-ol]",202 °C
3,"Cc1ccc(O)c(Cn2c(NC3CCN(CCN)CC3)nc3ccc(C=Cc4ccccc4)cc32)n1.Cl (hydrate or solvate) [Compound 146, 2-{2-[1-(2-Amino-ethyl)-piperidin-4-ylamino]-6-styryl-benzoimidazol-1-ylmethyl}-6-methyl-pyridin-3-ol hydrochloride salt]",> 260 °C
4,"Cc1cc(C)cc(NCc2ccc3nc(NCCCN4CCCCC4)n(Cc4nc(C)ccc4O)c3c2)c1 [Compound 173, 2-[6-[(3,5-dimethyl-phenylamino)-methyl]-2-(3-piperidin-1-yl-propylamino)-benzoimidazol-1-ylmethyl]-6-methyl-pyridin-3-ol]",161 °C
5,"Cc1cccc(CNc2ccc3nc(NC4CCN(C)CC4)n(Cc4nc(C)ccc4O)c3c2)c1 [Compound 28, 6-methyl-2-[6-(3-methyl-benzylamino)-2-(1-methyl-piperidin-4-ylamino)-benzoimidazol-1-ylmethyl]-pyridin-3-ol]",240 °C
6,"Cc1cccc(NC(=O)c2ccc3nc(NC4CCN(C)CC4)n(Cc4nc(C)ccc4O)c3c2)c1 [Compound 116, 3-(3-hydroxy-6-methyl-pyridin-2-ylmethyl)-2-(1-methyl-piperidin-4-ylamino)-3H-benzoimidazole-5-carboxylic acid m-tolylamide]",172 °C
7,"Cc1cccc(C(N)c2ccc3nc(NC4CCN(CCO)CC4)n(Cc4nc(C)ccc4O)c3c2)c1 (centres unmarked) [Compound 148, 2-[2-[1-(2-hydroxy-ethyl)-piperidin-4-ylamino]-6-(m-tolyl-amino-methyl)-benzoimidazol-1-ylmethyl]-6-methyl-pyridin-3-ol]",137 °C
